Measured values published in the pKa sets of Baltruschat and Czodrowski (2020).

Conditions: basic group

Compared with `CN1CCCCCCN(C)CCCCCC1`, `CCCCN1CCCCC1` is higher in pKa: 9.24 for the first, 10.5 for the second.

Compared with `CC[NH+](CC)CCN`, `CN(C)CCN(C)CCN` is higher in pKa: 6.76 for the first, 9.88 for the second.

First: Cc1nccn1C
Second: Cn1cccnc1=N
The pKa of the first is lower: 7.64 for the first, 10.8 for the second.

First: CNC(=N)N
Second: CNCC(=O)NC
The pKa of the first is higher: 13.4 for the first, 8.28 for the second.

Compared with `CN(C)c1ccc([NH+](C)C)cc1`, `CN(C)/C=N/c1ccc(Cl)cc1` is higher in pKa: 2.5 for the first, 8.46 for the second.

First: Cn1ncc2c(NCc3ccccc3)ncnc21
Second: CNc1ncnc2c1cnn2C
The pKa of the first is lower: 3.66 for the first, 4.24 for the second.

Going from `NC(=O)[C@H](N)[C@H](O)C(=O)O` to `CCOC(=O)C(C)N` (stereo not drawn), the pKa rises from 7.17 to 7.8.

Going from `CC1=Nc2ccc([N+](=O)[O-])cc2N=C(C)C1` to `CC1=CC(C)=Nc2ccc(C)cc2N1`, the pKa falls from 4.95 to 3.5.

Compared with `Cn1cnc2cncnc21`, `Cn1cnc2c([O-])nc(N)nc21` is higher in pKa: 2.42 for the first, 9.92 for the second.

Going from `CCCn1ccnc1CO` to `OCc1cccnc1`, the pKa falls from 7.04 to 5.

Compared with `N[C@H]1CONC1=O`, `C[C@H]([NH3+])[C@@H](C)N` is lower in pKa: 7.53 for the first, 6.84 for the second.

Compared with `CC(C)(C)NC1CCCCC1`, `NC[C@H]1CCCC[C@@H]1O` is lower in pKa: 11.3 for the first, 10.2 for the second.

Compared with `COc1ccc(C2CN2)cc1` (stereo not drawn), `Cc1ccc(N)cc1` is lower in pKa: 8.7 for the first, 5.04 for the second.

Going from `NNC=O` to `CCNCC(=O)[O-]`, the pKa rises from 2.81 to 10.2.

First: Nc1nc([O-])nc2nc[nH]c12
Second: Cc1cnc([O-])nc1N
The pKa of the first is lower: 8.99 for the first, 12.4 for the second.

First: [NH3+]CCCCCc1ccccn1
Second: NC(=O)CCCCc1ccncc1
The pKa of the first is lower: 5.7 for the first, 5.92 for the second.

`c1cc([C@@H]2CCCN2)nc([C@@H]2CCC[NH2+]2)c1` and `c1cc(C2CCCN2)nc(C2CCC[NH2+]2)c1` (stereo not drawn) are within 0.2 log units of each other in pKa: 9.39 for the first, 9.46 for the second.

Compared with `CN(C)Cc1ccccc1CO`, `CN(C)/C=N/c1ccccc1Br` is lower in pKa: 8.78 for the first, 6.71 for the second.

First: CCc1ccnnc1C
Second: C[Si](C)(C)c1ccc(N)cc1
The pKa of the first is lower: 4.03 for the first, 4.36 for the second.

Compared with `C1CN(CC2CO2)CCO1` (stereo not drawn), `Nc1cc(N2CCOCC2)nc(N)n1` is higher in pKa: 5.88 for the first, 6.73 for the second.

Compared with `COc1ccc(C(O)CNC(C)CC2=C(C)C(C)(C)CC2)cc1` (stereo not drawn), `COc1ccc(-c2nc3cnccc3n2C)c(OC)c1` is lower in pKa: 8.79 for the first, 6.16 for the second.

Compared with `C=CC(C)Nc1ccccc1` (stereo not drawn), `CC(N)(C(=O)[O-])c1ccccc1` (stereo not drawn) is higher in pKa: 4.57 for the first, 9 for the second.

First: CSc1ccc(N)c(I)c1
Second: NCc1ccc(Cl)c(N)c1
The pKa of the first is lower: 2.45 for the first, 9.33 for the second.

Compared with `CCC(=O)C(CCN1CCCCC1)(c1ccccc1)c1ccccc1`, `CCN(CC)CCC(OC(=O)c1ccccc1)c1ccccc1` (stereo not drawn) is lower in pKa: 8.86 for the first, 7.53 for the second.

First: CCN(CC)CCCNc1ccnc2ccccc12
Second: FC(F)(F)c1cccc2ncccc12
The pKa of the first is higher: 10 for the first, 3.09 for the second.

Compared with `Cc1c(N)ccc2c1-c1ccccc1C2`, `Oc1ccc2cnc3ccccc3c2c1` is higher in pKa: 4.83 for the first, 5.35 for the second.

Compared with `C[n+]1ccc([O-])nc1[O-]`, `Cn1ncc2ccccc21` is lower in pKa: 9.73 for the first, 0.51 for the second.

Compared with `Cc1cnc2ccc(C)c([N+](=O)[O-])c2c1NCCC[NH+](C)C`, `O=[N+]([O-])c1ccc(NCO)cc1` is lower in pKa: 6.07 for the first, -0.33 for the second.

`OCCCc1cccnc1` and `NC(=O)CCc1ccncc1` are within 0.2 log units of each other in pKa: 5.57 for the first, 5.58 for the second.

First: Cn1nc(-c2ccccc2)cc/c1=N\CCN1CCOCC1
Second: O=C([O-])c1cc(-c2ccccc2)nnc1NCC[NH+]1CCOCC1
The pKa of the first is higher: 10.2 for the first, 3.33 for the second.

Compared with `CC(C)C1CC(CC(=O)[O-])NC1C(=O)[O-]` (stereo not drawn), `COC(=O)[C@@H]1[C@@H](O)C[C@H]2CC[C@@H]1N2C` is lower in pKa: 10.4 for the first, 8.21 for the second.

First: OCNc1nc(NCO)nc(NCO)n1
Second: CCC(N)(CO)CO
The pKa of the first is lower: 4.05 for the first, 8.8 for the second.

First: Cc1cc(-c2cc(C)n(C)[nH+]2)nn1C
Second: CC(C)/[NH+]=C/N(C)c1ccc(-c2c[nH]cn2)cc1
The pKa of the first is lower: -0.6 for the first, 5.25 for the second.

Compared with `Cc1ccc(NN=C(C#N)C#N)cc1`, `Cc1ccc2c(c1)N1CCN2CC1` is higher in pKa: -0.83 for the first, 5.83 for the second.

Going from `c1ccc(-c2nc3ccccc3[nH]2)nc1` to `[O-]c1ncc2ccccc2n1`, the pKa rises from 4.41 to 10.7.

Compared with `CC[C@]12CCCN3CCc4c(n(c5ccccc45)CC1)[C@@H]32`, `CN1C(=O)N(CCN2CCOCC2)C(=O)C(C)(C2=CCCCC2)C1=O` (stereo not drawn) is lower in pKa: 6.9 for the first, 5.75 for the second.

Compared with `Nc1nnnn1-c1ccc(Cl)cc1`, `NC(=O)c1cncc2ccccc12` is higher in pKa: 0.78 for the first, 3.8 for the second.

Going from `CCCCCCCCCCCCCCN(CC(O)CC)CC(O)CC` (stereo not drawn) to `CCCCCCCCCCCCCCN(CCO)CC(O)CC` (stereo not drawn), the pKa rises from 5.7 to 6.1.

Going from `c1ccc2scnc2c1` to `c1ccc2c(c1)NCCN2`, the pKa rises from 1.38 to 4.84.

First: COC1CC2CCN1CC2 (stereo not drawn)
Second: CC1NCCC[NH2+]1
The pKa of the first is higher: 8.87 for the first, 7.19 for the second.

Compared with `Clc1cc2cccnc2c2ncccc12`, `Nc1ccc(-c2ncc(-c3ccc(Br)cc3)o2)cc1` is lower in pKa: 4.22 for the first, 2.8 for the second.

Going from `CNC` to `CCCNC(C)C(=O)[O-]` (stereo not drawn), the pKa falls from 11 to 10.2.

First: Nc1cc2c(cc1Br)CCCC2
Second: CC/N=c1\sc(-c2ccccc2)nn1CC
The pKa of the first is lower: 3.05 for the first, 6.7 for the second.

Compared with `N=C(c1ccccc1)c1ccc(O)cc1`, `Cc1[nH]cnc1CSCCNC(=N)NCCCc1c[nH]cn1` is higher in pKa: 6.45 for the first, 11.6 for the second.
